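Test compounds were applied to cells in 96-well plates for 48 hours at 5 doses. TGI: concentration producing complete growth inhibition.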
Legend:
Assay in all cases: inhibition of tumour cell growth, NCI panel, 48 h
[1] = tested on: 786-0 renal
[2] = tested on: A498 renal
[3] = tested on: A549 NSCLC
[4] = tested on: ACHN renal
[5] = tested on: BT-549 breast
[6] = tested on: CAKI-1 renal
[7] = tested on: CCRF-CEM leukemia
[8] = tested on: COLO 205 colon
[9] = tested on: DU-145 prostate
[10] = tested on: EKVX NSCLC
[11] = tested on: HCC-2998 colon
[12] = tested on: HCT-116 colon
[13] = tested on: HCT-15 colon
[14] = tested on: HL-60(TB) leukemia
[15] = tested on: HOP-62 NSCLC
[16] = tested on: HOP-92 NSCLC
[17] = tested on: HS 578T breast
[18] = tested on: HT29 colon
[19] = tested on: IGROV1 ovarian
[20] = tested on: K-562 leukemia
[21] = tested on: KM12 colon
[22] = tested on: LOX IMVI melanoma
[23] = tested on: M14 melanoma
[24] = tested on: MALME-3M melanoma
[25] = tested on: MCF7 breast
[26] = tested on: MDA-MB-231 breast
[27] = tested on: MDA-MB-435
[28] = tested on: MDA-N
[29] = tested on: MOLT-4 leukemia
[30] = tested on: NCI-H226 lung
[31] = tested on: NCI-H23 lung
[32] = tested on: NCI-H460 lung
[33] = tested on: NCI-H522 lung
[34] = tested on: NCI/ADR-RES ovarian
[35] = tested on: OVCAR-3 ovarian
[36] = tested on: OVCAR-4 ovarian
[37] = tested on: OVCAR-5 ovarian
[38] = tested on: OVCAR-8 ovarian
[39] = tested on: PC-3 prostate
[40] = tested on: RPMI-8226 leukemia
[41] = tested on: RXF 393 renal
[42] = tested on: SF-268 CNS
[43] = tested on: SF-295 CNS
[44] = tested on: SF-539 CNS
[45] = tested on: SK-MEL-2 melanoma
[46] = tested on: SK-MEL-28 melanoma
[47] = tested on: SK-MEL-5 melanoma
[48] = tested on: SK-OV-3 ovarian
[49] = tested on: SN12C renal
[50] = tested on: SNB-19 CNS
[51] = tested on: SNB-75 CNS
[52] = tested on: SW-620 colon
[53] = tested on: T-47D breast
[54] = tested on: TK-10 renal
[55] = tested on: U251 CNS
[56] = tested on: UACC-257 melanoma
[57] = tested on: UACC-62 melanoma
[58] = tested on: UO-31 renal

COc1cc(-c2c3c([nH]c(=O)c2C#N)-c2cc([N+](=O)[O-])ccc2CCC3)cc(OC)c1OC
TGI [1]: 65.2 µM
TGI [2]: 66.9 µM
TGI [3]: 81.8 µM
TGI [4]: 70.6 µM
TGI [5]: 61.3 µM
TGI [6]: 87.9 µM
TGI [7]: > 100 µM
TGI [8]: 43.3 µM
TGI [9]: > 100 µM
TGI [10]: 70.5 µM
TGI [11]: 46.1 µM
TGI [12]: 37.7 µM
TGI [13]: > 100 µM
TGI [14]: 72.7 µM
TGI [15]: 92.2 µM
TGI [16]: > 100 µM
TGI [17]: 73.3 µM
TGI [18]: > 100 µM
TGI [19]: > 100 µM
TGI [20]: > 100 µM
TGI [21]: > 100 µM
TGI [22]: > 100 µM
TGI [23]: > 100 µM
TGI [24]: 73.9 µM
TGI [25]: 44.5 µM
TGI [26]: 79.2 µM
TGI [27]: > 100 µM
TGI [28]: 55 µM
TGI [29]: > 100 µM
TGI [30]: 89 µM
TGI [31]: 45.8 µM
TGI [32]: 67 µM
TGI [33]: 59 µM
TGI [34]: > 100 µM
TGI [35]: 46.3 µM
TGI [36]: > 100 µM
TGI [37]: 69.1 µM
TGI [38]: > 100 µM
TGI [39]: > 100 µM
TGI [40]: 52.1 µM
TGI [41]: 82.8 µM
TGI [42]: > 100 µM
TGI [43]: 33.1 µM
TGI [44]: > 100 µM
TGI [45]: 44.3 µM
TGI [46]: > 100 µM
TGI [47]: 26.7 µM
TGI [48]: 66.4 µM
TGI [49]: 46.7 µM
TGI [50]: > 100 µM
TGI [51]: 62.6 µM
TGI [52]: > 100 µM
TGI [53]: > 100 µM
TGI [54]: > 100 µM
TGI [55]: > 100 µM
TGI [56]: > 100 µM
TGI [57]: 32.1 µM
TGI [58]: 75.1 µM

N#CC(C#N)=Cc1ccc(C=C2SC3=C(SCCS3)S2)s1
TGI [1]: > 100 µM
TGI [2]: 42.7 µM
TGI [3]: > 100 µM
TGI [4]: > 100 µM
TGI [5]: 15.2 µM
TGI [6]: > 100 µM
TGI [7]: > 100 µM
TGI [8]: > 100 µM
TGI [9]: > 100 µM
TGI [10]: > 100 µM
TGI [11]: > 100 µM
TGI [12]: > 100 µM
TGI [13]: > 100 µM
TGI [14]: 7.03 µM
TGI [15]: > 100 µM
TGI [16]: > 100 µM
TGI [17]: > 100 µM
TGI [18]: > 100 µM
TGI [19]: > 100 µM
TGI [21]: > 100 µM
TGI [23]: > 100 µM
TGI [24]: > 100 µM
TGI [25]: > 100 µM
TGI [26]: > 100 µM
TGI [27]: 7.37 µM
TGI [28]: 3.03 µM
TGI [29]: > 100 µM
TGI [30]: 9.73 µM
TGI [31]: 95.3 µM
TGI [32]: > 100 µM
TGI [33]: > 100 µM
TGI [34]: 42.8 µM
TGI [35]: > 100 µM
TGI [36]: > 100 µM
TGI [37]: 35.2 µM
TGI [38]: > 100 µM
TGI [39]: > 100 µM
TGI [40]: 6.28 µM
TGI [42]: > 100 µM
TGI [43]: > 100 µM
TGI [44]: 28.1 µM
TGI [45]: > 100 µM
TGI [46]: > 100 µM
TGI [47]: > 100 µM
TGI [48]: > 100 µM
TGI [49]: > 100 µM
TGI [50]: > 100 µM
TGI [51]: 94 µM
TGI [52]: > 100 µM
TGI [53]: > 100 µM
TGI [54]: 68.6 µM
TGI [55]: > 100 µM
TGI [56]: > 100 µM
TGI [57]: > 100 µM
TGI [58]: > 100 µM
